Biological target: Metabotropic glutamate receptor 5 (Rattus norvegicus) (UniProt P31424)
Experiment: PubChem AID 588710
Conditions: HEK293 rat mGluR5 membranes, [3H]methoxyPEPy displacement

Sequence of Metabotropic glutamate receptor 5 (Rattus norvegicus) (P31424 whole entry, looked up): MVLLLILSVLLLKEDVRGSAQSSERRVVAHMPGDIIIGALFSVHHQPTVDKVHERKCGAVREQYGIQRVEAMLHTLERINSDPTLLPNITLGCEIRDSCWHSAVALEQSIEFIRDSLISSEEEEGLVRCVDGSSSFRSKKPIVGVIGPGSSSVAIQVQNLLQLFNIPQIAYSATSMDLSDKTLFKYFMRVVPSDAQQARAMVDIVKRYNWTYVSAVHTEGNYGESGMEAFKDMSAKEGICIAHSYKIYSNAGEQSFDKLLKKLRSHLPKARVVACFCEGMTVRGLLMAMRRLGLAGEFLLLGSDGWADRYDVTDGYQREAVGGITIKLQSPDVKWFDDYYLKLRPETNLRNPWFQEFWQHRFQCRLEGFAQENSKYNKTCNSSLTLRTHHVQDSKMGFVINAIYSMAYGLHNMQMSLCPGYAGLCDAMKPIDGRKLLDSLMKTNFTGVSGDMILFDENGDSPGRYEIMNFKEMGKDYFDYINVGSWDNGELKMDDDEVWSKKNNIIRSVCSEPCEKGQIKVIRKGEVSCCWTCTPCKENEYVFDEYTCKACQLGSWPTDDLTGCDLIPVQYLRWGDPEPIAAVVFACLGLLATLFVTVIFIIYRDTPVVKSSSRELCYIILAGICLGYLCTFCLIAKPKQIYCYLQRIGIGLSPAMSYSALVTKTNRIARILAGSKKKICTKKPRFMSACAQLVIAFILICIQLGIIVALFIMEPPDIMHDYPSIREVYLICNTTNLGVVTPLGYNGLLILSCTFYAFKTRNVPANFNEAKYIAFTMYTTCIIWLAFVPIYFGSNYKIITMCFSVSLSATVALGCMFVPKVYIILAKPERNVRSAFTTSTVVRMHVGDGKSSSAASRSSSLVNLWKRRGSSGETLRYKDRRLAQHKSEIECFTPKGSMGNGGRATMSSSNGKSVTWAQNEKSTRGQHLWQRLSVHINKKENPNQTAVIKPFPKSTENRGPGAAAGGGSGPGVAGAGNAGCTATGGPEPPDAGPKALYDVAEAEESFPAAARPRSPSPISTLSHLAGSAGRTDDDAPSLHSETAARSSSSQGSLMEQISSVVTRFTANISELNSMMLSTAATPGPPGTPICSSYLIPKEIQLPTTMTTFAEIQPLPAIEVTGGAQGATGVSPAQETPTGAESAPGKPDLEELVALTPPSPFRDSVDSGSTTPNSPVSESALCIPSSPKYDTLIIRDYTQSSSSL

IC50: 4.84 nM
Structure (SMILES): C[C@@H](NC(=O)c1ccc(C#Cc2cccc(F)c2)cn1)C(C)(C)O
